Measured values from patent US11427595B2, “Compositions and methods for inhibiting viral infection” (Trustees of Boston University, priority 2018, dated 2022).

How the values were obtained:
JFH-1 HCVcc-Luc = assay: microbe, parasite or virus in culture; format: cell-based, Hepatitis C virus; details: for inhibition of HCV infection (in words): Huh7.5.1 cells, comparisons are to aglaroxin C (6); for EC50: Hepatitis C virus, Huh-7.5.1, read-out: EC50, inhibition of HCV infection
Huh7.5.1 cells [1] = assay: Cytotoxicity, CellTiter-Glo Cell Viability Luminescent Assay; format: cell-based, human; details: Huh7.5.1 cells; for cytotoxicity (in words): comparisons are to aglaroxin C (6)
Method: (§1) To determine the […] of each compound, Huh7.5.1 cells were treated with compounds or DMSO at indicated doses for 3 h in 96-well plates. After removal of compounds, cells were further incubated for 72 h prior to the viability assay. The numbers of viable cells in culture were determined using the CellTiter-Glo Cell Viability Luminescent Assay kit according to the manufacturer's instruction (Promega). Percentages of toxicity were calculated using the formulas: 100-percentage of vial cells relative to that from the dimethyl sulfoxide (DMSO) treated group (100%) (n=3) (FIG. 20-FIG. 57).

[2] = as above; format: cell-based, human; details: human; Huh7.5.1 cells, 3 h treatment, viability after 72 h; concentration giving 50% cell death
Method: as §1

Huh7.5.1 cells [3] = assay: MTS cell viability assay; format: cell-based, human; details: 3 h treatment, 72 h incubation
Excerpt: In this comparison, niclosamide was used as a positive control, which is known as HCV inhibitor (unclear mechanisms). Data from CellTiter-Glo assay was obtained from separate experiments conducted on a different date.
MTS (3-(4,5-dimethylthiazol-2-yl)-5-(3-carboxymethoxyphenyl)-2-(4-sulfophenyl)-2H-tetrazolium)) assay is a colorimetric assay used to determine the mitochondrial metabolic rate by quantifying the reduced formazan product of MTS in cells to reflect viable cells. To determine the CC50 of each compound, Huh7.5.1 cells were treated with compounds or DMSO at indicated doses for 3 h in 96-well plates. After removal of compounds, cells were further incubated for 72 h prior to conducting the viability assay. The MTS assay in this study is accordance with a protocol provided by manufacturer (Promega, Madison, Wis. USA). One-fifth volume of MTS reagent was added into the culture supernatant at indicated time points. Plates were incubated at 37° C. for 3 hours with 5% CO2 followed by measuring the absorbance at 490 nanometers (nm) with an ELISA reader (SpectraMax Plus 385, Molecular Devices, USA). Percentages of toxicity were calculated using the formulas: 100-percentage of vial cells relative to that from the dimethyl sulfoxide (DMSO) treated group (100%) (n=3) (FIG. 68-FIG. 71).

translation = details: previous studies; cited from earlier work
[4] = tested on: cap-dependent Firefly luciferase (FLuc) translation; assay: In vitro translation of bicistronic FF/HCV/Ren mRNA in Krebs-2 extracts, cap-dependent; format: biochemical; details: 1 μM, relative to DMSO
Excerpt: In this system, Firefly luciferase (FLuc) translation is cap-dependent whereas Renilla luciferase (RLuc) expression HCV-IRES dependent. […] Results are presented relative to values obtained in the presence of DMSO ad expressed as mean±error of two biological replicates.
In this system, translation of the Firefly luciferase (FLuc) translation is cap-dependent whereas Renilla luciferase (RLuc) translation is dependent upon the HCV internal ribosome entry site (IRES) FIG. 11A.
In vitro transcriptions and translations were performed as described previously. Plasmid encoding the bicistronic FF/HCV/Ren open reading frame was linearized with BamHI and m^7Gppp-capped mRNA was produced by in vitro transcription reactions using SP6 RNA polymerase. In vitro translation reactions were performed with S10 extracts prepared from Kreb-2 cells and programmed with 4 ng/uL of in vitro transcribed mRNA. Firefly (FF) and Renilla (Ren) luciferase activities were measured on a Berthold Lumat LB9507 Luminometer and values normalized against vehicle control, which was set at 1.

Compound	inhibition of HCV infection (in words) (JFH-1 HCVcc-Luc)	cytotoxicity (in words) (Huh7.5.1 cells [1])	further results
COc1ccc([C@@]23Oc4cc(OC)cc(OC)c4[C@]2(O)c2nc(-c4cnccn4)[nH]c(=O)c2[C@H]3c2ccccc2)cc1 [12y, (5R,5aR,10bS)-10b-Hydroxy-8,10-dimethoxy-5a-(4-methoxyphenyl)-5-phenyl-2-(pyrazin-2-yl)-3,5,5a,10b-tetrahydro-4H-benzofuro[2′,3′:4,5]cyclopenta[1,2-d]pyrimidin-4-one]	slightly increased inhibition		
COc1ccc([C@@]23Oc4cc(OC)cc(OC)c4[C@]2(O)c2nc(Nc4ccccc4)n(-c4ccccc4)c(=O)c2[C@H]3c2ccccc2)cc1 [12af, (5R,5aR,10bS)-10b-Hydroxy-8,10-dimethoxy-5a-(4-methoxyphenyl)-3,5-diphenyl-2-(phenylamino)-3,5,5a,10b-tetrahydro-4H-benzofuro[2′,3′:4,5]cyclopenta[1,2-d]pyrimidin-4-one]	moderate antiviral activity		
COc1ccc([C@]23Oc4cc(OC)cc(OC)c4[C@@]2(O)c2nc(-c4ccc(C)cc4)[nH]c(=O)c2[C@@H]3c2ccccc2)cc1 [(−)-12l]	inactive	non-toxic	
COc1ccc([C@@]23Oc4cc(OC)cc(OC)c4[C@]2(O)c2nc(C4CC4)[nH]c(=O)c2[C@H]3c2ccccc2)cc1 [12h, (5R,5aR,10bS)-2-Cyclopropyl-10b-hydroxy-8,10-dimethoxy-5a-(4-methoxyphenyl)-5-phenyl-3,5,5a,10b-tetrahydro-4H-benzofuro[2′,3′:4,5]cyclopenta[1,2-d]pyrimidin-4-one]	increased inhibition		
COc1ccc([C@]23Oc4cc(OC)cc(OC)c4[C@@]2(O)c2nc(-c4cccc(OC)c4)[nH]c(=O)c2[C@@H]3c2ccccc2)cc1 [(−)-12s]	inactive	non-toxic	
COc1ccc([C@@]23Oc4cc(OC)cc(OC)c4[C@]2(O)c2nc4n(c(=O)c2[C@H]3c2ccccc2)CCCC4)cc1 [12ad, (5aR,6R,13bS)-13b-Hydroxy-1,3-dimethoxy-5a-(4-methoxyphenyl)-6-phenyl-6,9,10,11,12,13b-hexahydrobenzofuro[2′,3′:4,5]cyclopenta[1,2-d]pyrido[1,2-a]pyrimidin-7(5aH)-one]	moderate antiviral activity		
COc1ccc([C@@]23Oc4cc(OC)cc(OC)c4[C@]2(O)c2nc(-c4ccccc4)[nH]c(=O)c2[C@H]3c2ccccc2)cc1 [12a, (5R,5aR,10bS)-10b-Hydroxy-8,10-dimethoxy-5a-(4-methoxyphenyl)-2,5-diphenyl-3,5,5a,10b-tetrahydro-4H-benzofuro[2′,3′:4,5]cyclopenta[1,2-d]pyrimidin-4-one]	promising increase of inhibition	plateauing of cytotoxicity	CC50 [2]: 8.1 µM; EC50 (JFH-1 HCVcc-Luc): 0.42 µM
COc1ccc([C@@]23Oc4cc(OC)cc(OC)c4[C@]2(O)c2nc(-c4ccccn4)[nH]c(=O)c2[C@H]3c2ccccc2)cc1 [12ab, (5R,5aR,10bS)-10b-Hydroxy-8,10-dimethoxy-5a-(4-methoxyphenyl)-5-phenyl-2-(pyridin-2-yl)-3,5,5a,10b-tetrahydro-4H-benzofuro[2′,3′:4,5]cyclopenta[1,2-d]pyrimidin-4-one]	slightly increased inhibition		
COc1ccc(-c2nc3c(c(=O)[nH]2)[C@@H](c2ccccc2)[C@]2(c4ccc(OC)cc4)Oc4cc(OC)cc(OC)c4[C@]32O)cc1 (racemic) [12k, (5R,5aR,10bS)-10b-Hydroxy-8,10-dimethoxy-2,5a-bis(4-methoxyphenyl)-5-phenyl-3,5,5a,10b-tetrahydro-4H-benzofuro[2′,3′:4,5]cyclopenta[1,2-d]pyrimidin-4-one]			toxicity curve in MTS assay compared with CellTiter-Glo assay (Huh7.5.1 cells [3]): nearly identical toxicity curves
COC(=O)[C@H]1[C@@H](O)[C@@]2(O)c3c(OC)cc(O[C@@H]4O[C@@H]([C@H](O)CO)CO[C@H]4OC)cc3O[C@@]2(c2ccc(OC)cc2)[C@@H]1c1ccccc1 [silvestrol]			translation inhibition (in words) (translation): excellent translation inhibitor
COc1ccc([C@@]23Oc4cc(OC)cc(OC)c4[C@]2(O)c2nc(N4CCOCC4)[nH]c(=O)c2[C@H]3c2ccccc2)cc1 [12j, (5R,5aR,10bS)-10b-Hydroxy-8,10-dimethoxy-5a-(4-methoxyphenyl)-2-morpholino-5-phenyl-3,5,5a,10b-tetrahydro-4H-benzofuro[2′,3′:4,5]cyclopenta[1,2-d]pyrimidin-4-one]	moderate antiviral activity		
COc1ccc([C@@]23Oc4cc(OC)cc(OC)c4[C@]2(O)c2nc(-c4ccccc4)[nH]c(=O)c2[C@@H]3c2ccccc2)cc1 [12ah, (5S,5aR,10bS)-10b-Hydroxy-8,10-dimethoxy-5a-(4-methoxyphenyl)-2,5-diphenyl-3,5,5a,10b-tetrahydro-4H-benzofuro[2′,3′:4,5]cyclopenta[1,2-d]pyrimidin-4-one]	inactive	no cytotoxicity	
COc1ccc([C@@]23Oc4cc(OC)cc(OC)c4[C@]2(O)c2nc(C4CCCCC4)[nH]c(=O)c2[C@H]3c2ccccc2)cc1 [12e, (5R,5aR,10bS)-2-Cyclohexyl-10b-hydroxy-8,10-dimethoxy-5a-(4-methoxyphenyl)-5-phenyl-3,5,5a,10b-tetrahydro-4H-benzofuro[2′,3′:4,5]cyclopenta[1,2-d]pyrimidin-4-one]		plateauing of cytotoxicity	EC50 (JFH-1 HCVcc-Luc): 2.5 µM
COc1ccc([C@@]23Oc4cc(OC)cc(OC)c4[C@]2(O)c2nc(-c4ccccc4)nc(OC)c2[C@H]3c2ccccc2)cc1 [12aj, (5R,5aR,10bS)-4,8,10-Trimethoxy-5a-(4-methoxyphenyl)-2,5-diphenyl-5,5a-dihydro-10bH-benzofuro[2′,3′:4,5]cyclopenta[1,2-d]pyrimidin-10b-ol]	inactive	non-toxic	
COc1ccc([C@@]23Oc4cc(OC)cc(OC)c4[C@]2(O)c2nc(-c4ccccc4)n(C)c(=O)c2[C@H]3c2ccccc2)cc1 [12ae, (5R,5aR,10bS)-10b-Hydroxy-8,10-dimethoxy-5a-(4-methoxyphenyl)-3-methyl-2,5-diphenyl-3,5,5a,10b-tetrahydro-4H-benzofuro[2′,3′:4,5]cyclopenta[1,2-d]pyrimidin-4-one]		plateauing of cytotoxicity	CC50 [2]: 7.3 µM; EC50 (JFH-1 HCVcc-Luc): 0.2 µM
COc1ccc([C@@]23Oc4cc(OC)cc(OC)c4[C@]2(O)c2nc(-c4ccc(C(F)(F)F)cc4)[nH]c(=O)c2[C@H]3c2ccccc2)cc1 (racemic) [12o, (5R,5aR,10bS)-10b-Hydroxy-8,10-dimethoxy-5a-(4-methoxyphenyl)-5-phenyl-2-(4-(trifluoromethyl)phenyl)-3,5,5a,10b-tetrahydro-4H-benzofuro[2′,3′:4,5]cyclopenta[1,2-d]pyrimidin-4-one]			maximum cytotoxicity plateau, cell death (Huh7.5.1 cells [1]; dose-response up to 200 μM): ~100%; CC50 [2]: 10 µM; EC50 (JFH-1 HCVcc-Luc): 0.24 µM; toxicity curve in MTS assay compared with CellTiter-Glo assay (Huh7.5.1 cells [3]): nearly identical toxicity curves
CONC(=O)[C@H]1[C@@H](O)[C@@]2(O)c3c(OC)cc(OC)cc3O[C@@]2(c2ccc(OC)cc2)[C@@H]1c1ccccc1 [CR-1-31-B, reference compound]			translation inhibition of firefly luciferase (cap-dependent) [4]: strong inhibition
COc1ccc([C@@]23Oc4cc(OC)cc(OC)c4[C@]2(OC)c2nc(-c4ccccc4)n(C)c(=O)c2[C@H]3c2ccccc2)cc1 [12ai, (5R,5aR,10bS)-8,10,10b-Trimethoxy-5a-(4-methoxyphenyl)-3-methyl-2,5-diphenyl-3,5,5a,10b-tetrahydro-4H-benzofuro[2′,3′:4,5]cyclopenta[1,2-d]pyrimidin-4-one]			EC50 (JFH-1 HCVcc-Luc): 9.2 µM
